This is an account of results in ChEMBL document CHEMBL6103632, “Seven New Guanidine Derivatives and One New Hypoxanthine Derivative Isolated from the Scorpion Buthus martensii and Potential Anti-Neuroinflammatory Activity” (J Nat Prod, 2025).

Each structure is given as a SMILES string. Active and inactive are the calls of the source. No cut-off for these calls is given here. Some results are limits rather than exact numbers.

Data set [1] is described as follows: Cytotoxicity against mouse BV-2 cells assessed as cell viability at 20 uM incubated for 24 hr by CCK-8 assay. To be noted: read-out: Activity. Type of data set: toxicity, cell-based. Background: Tetrazolium dyes change colour on reduction, which living cells bring about.
For data set [2], the system named is BV-2. Put plainly: Antineuroinflammatory activity in LPS-induced mouse BV-2 cells assessed as reduction in ROS level pretreated with LPS for 4 hrs followed by compound treatment for 24 hrs by ROS probe based microscopy. It is filed as functional, cell-based. To be noted: dose 20.0 µM.
Data set [3] deals with BV-2. Put plainly: Antineuroinflammatory activity in LPS-induced mouse BV-2 cells assessed as reduction in TNF-alpha level at 20 uM pretreated with LPS for 4 hrs followed by compound treatment for 24 hrs by ELISA analysis. It is filed as functional, cell-based.
For data set [4], the system named is BV-2. Put plainly: Antineuroinflammatory activity in LPS-induced mouse BV-2 cells assessed as reduction in IL-1beta level at 20 uM pretreated with LPS for 4 hrs followed by compound treatment for 24 hrs by ELISA analysis. Type of data set: functional, cell-based.
The next data set has as its system Mitochondrial membrane. Put plainly: Induction of mitochondrial membrane potential in LPS-induced mouse BV-2 cells assessed as reduction in ratio of red to green fluorescence intensity at 20 uM pretreated with LPS for 4 hrs followed by compound treatment for 24 hrs by JC-1 staining based assay. It is filed as cell membranes.
Data set [5] relates to BV-2. The experiment in a line: Antineuroinflammatory activity in LPS-induced mouse BV-2 cells assessed as reduction in IL-6 level at 20 uM pretreated with LPS for 4 hrs followed by compound treatment for 24 hrs by ELISA analysis. It is filed as functional, cell-based. In general terms: In an ELISA, binding on a coated surface is turned into a signal by an enzyme label.

For `CCC/C=C/C(=O)NCCCCNC(=N)N`, the viability at 24 h, 20 µM in data set [1] is over 75%.

For `N=C(N)NCCCCNC(=O)c1ccc(O)cc1`, in data set [1], the viability at 24 h, 20 µM was over 75%.

With `N=C(N)NCCCCNC(=O)c1c[nH]c2ccccc12`, the viability at 24 h, 20 µM in data set [1] was over 75%.

For `N=C(N)NCCCCNC(=O)c1cccnc1`, the viability at 24 h, 20 µM in data set [1] was over 75%.

For `N=C(N)NCCCCNC(=O)Cc1ccc(O)c(Cl)c1`, the viability at 24 h, 20 µM in data set [1] was over 75%.

Turning to `N=C(N)NCCCCNC(=O)Cc1ccc(O)cc1`, the viability at 24 h, 20 µM in data set [1] is over 75%.

In the case of `N=C(N)NCCCCNC(=O)c1ccccc1`, in data set [1], the viability at 24 h, 20 µM was over 75%.

Consider `N=C(N)NCCCCNC(=O)Cc1c[nH]c2ccccc12`, for which, in data set [1], the viability at 24 h, 20 µM is over 75%.

Turning to `CC(=O)CC(C)(C)n1cnc2c(=O)[nH]cnc21`, the viability at 24 h, 20 µM in data set [1] is over 75%.

Consider `N=C(N)NCCCCNC(=O)Cc1ccccc1`, for which the viability at 24 h, 20 µM in data set [1] is over 75%.

Take `COc1ccc2[nH]cc(CCNC(C)=O)c2c1`: the Activity result in the data set on BV-2 [2] was “Dose-dependent-effect”.

`N=C(N)NCCCCn1cnc2ccccc2c1=O`: in data set [1], the viability at 24 h, 20 µM is over 75%.

For the compound `COc1cc(CC(=O)NCCCCNC(=N)N)ccc1O`, the outcome in the data set with BV-2 [3], in the data set on BV-2 [4], with Mitochondrial membrane and with BV-2 [5] was Active. The viability at 24 h, 20 µM in data set [1] is over 75%.

On to `N=C(N)NCCCCNC(=O)Cc1cc(Cl)c(O)c(Cl)c1`, for which, in data set [1], the viability at 24 h, 20 µM was over 75%.
